Experimental data taken from patent US20240182423A1, “4-AMINOQUINOLINES FOR TREATMENT OF MULTIDRUG RESISTANT MALARIA” (United States Government as represented by the Department …, priority 2022, published 2024).
Like-named read-outs stand apart in the source and are kept apart here.

What was measured:
[1] = test system: drug sensitive D6 clone of P. falciparum; assay: SYBR Green I fluorescence-based antiplasmodial assay, D6; type: cell-based, Plasmodium falciparum; conditions: P. falciparum D6, 72 hours
Protocol: (§1) Laboratory strains of P. falciparum were cultured in human erythrocytes by standard methods (Trager, W.; Jensen, J. B. Human malaria parasites in continuous culture. Science 1976, 193 (4254), 673-675. DOI: 10.1126/science.781840 from NLM Medline). The parasites were grown in culture medium with fresh human erythrocytes maintained at 2% hematocrit at 37° C. in low-oxygen conditions (5% 02, 5% CO2, 90% N2). The culture medium used was RPMI-1640 with 25 mg/L gentamicin sulfate, 45 mg/L Albumax II, 10 mM glucose, and 25 mM HEPES buffer (Smilkstein et al., Simple and inexpensive fluorescence-based technique for high-throughput antimalarial drug screening. Antimicrob Agents Chemother 2004, 48 (5), 1803-1806. DOI: 10.1128/aac.48.5.1803-1806.2004). Cultures were maintained at less than 10% parasitemia by transfer of infected cells to fresh erythrocytes and culture medium every 3 or 4 days. […]
(§2) In vitro antimalarial activity was measured using the SYBR Green I fluorescence-based assay. […] Experiments were set up in quadruplicate in 96-well plates with a 100 μL total volume per well with 2% hematocrit, 0.2% parasitemia, and drug dilutions between 0.25 and 250 nM in complete culture medium described above. The plates were incubated at 37° C. in low-oxygen conditions described previously for 72 hours, at which point 100 μL of fluorescent dye-detergent mixture (0.2 μL SYBR Green I: 1 mL lysing buffer) was added and the plates incubated in the dark at room temperature for one hour. After incubation with the fluorescent dye, a 96-well plate reader with excitation wavelength set at 497 nm and emission at 520 nm, was used to measure fluorescence of each well.
(§3) Each of the ADC derivatives was tested for antiplasmodial activity against the drug sensitive D6 clone of P. falciparum as well as one or more of the following multidrug resistant strains: Dd2 or 7G8. The method used for antiplasmodial testing is known as the SyBr Green assay and it was described by us in 2004 (Smilkstein et al., Antimicrob Agents Chemother 2004, 48 (5), 1803-1806).

[2] = test system: multi-drug resistant (Dd2) P. falciparum; assay: SYBR Green I fluorescence-based antiplasmodial assay, Dd2; type: cell-based, Plasmodium falciparum; conditions: for IC50: P. falciparum Dd2, 72 hours; for cross resistance, Dd2 vs D6: ratio of IC50 in Dd2 and D6 strains
Protocol: as §1, §2, §3

[3] = Metabolic stability in pooled murine liver microsomes; type: in vitro ADME; conditions: for half-life: mouse
Protocol: (§4) In vivo efficiency: ADCs antiplasmodial efficiency (ED50, ED90) assessed in murine malaria model against P. yoelii (Py). Metabolic stability: ADCs were assessed for metabolic stability (t1/2, Clint) in pooled murine liver microsomes. Referring to Table 1, ND=not detected.

[4] = HepG2 cytotoxicity assay (resazurin); type: cell-based; conditions: human, HepG2, 24 h drug then 24 h drug-free, read-out: CC50 v HepG2
Protocol: Final compounds were assessed for mammalian cytotoxicity using an immortalized human liver carcinoma cell line (HepG2) using previously described methods.^1 In short, final compounds were prepared in DMSO as 10 mM stock solutions. […] To 96-well flat-bottomed tissue culture plates, HepG2 cells were added at 2×10 4 density with an additional 160 μL of complete culture media per well and were incubated overnight at 37° C. to allow for adherence. Compound stocks aliquots were applied as 40 μL solutions in complete media to each well in a serial dilution series that ranged from […] as duplicates. A 10 mM DMSO stock of mefloquine was used as a positive control. […] 20 μL of resazurin (Alamar Blue) in PBS buffer was added to each well to a final concentration of 10 μM, and the plates were incubated for 3 h. Fluorescence was measured at 560 nm excitation and 590 nm emission bands using a Spectramax iD3 plate reader. Fluorescence output values were normalized to the untreated control wells and plotted against the logarithm of drug concentration.

Plasmodium yoelii = assay: In vivo efficacy against murine malaria, modified 4-day test; conditions: for ED50 (mg/kg/d) vs Py / ED90 (mg/kg/d) vs Py: P. yoelii in mice, oral once daily for 4 days, PEG-400
Protocol: as §4
Selected ADC derivatives were also tested in vivo in mice using the standard 4-day test protocol as described previously. For this work the rodent malaria parasite Plasmodium yoelii was used and the mice were CF1 female. Briefly, animals were inoculated with 35,000 parasitized red blood cells (obtained from a donor animal) on Day 0 of the experiment. Beginning on the next day (Day 1) and again on the 3 succeeding days (Days 2, 3, and 4) the animals received oral doses of the test agent dissolved in the dosing vehicle PEG-400. On Day 5 a blood sample was taken from the tail vein and examined microscopically for the presence of parasites using Giemsa stained and methanol fixed blood smears.
The in vivo efficacy of selected ADC derivatives was determined against blood-stage Plasmodium yoelii using a modified 4-day test. Female mice (Charles River Laboratories) were infected intravenously with 35,000 P. yoelii parasitized erythrocytes from a donor animal (Kenya MR4 MRA-428). […] Five days after inoculation, percent parasitemia was calculated by examination of Giemsa-stained blood smears.

[5] = Pharmacokinetic study in mice; type: in vivo
[6] = Plasmodium falciparum, D6, 72 h
[7] = Plasmodium falciparum, DD2, 72 h
[8] = mouse, plasma, PO 5 mg/kg in PEG400, male CD1 mice
[9] = mouse, plasma, PO 5 mg/kg in PEG400, male CD1 mice, non-compartmental

Structure (SMILES): CCCCN1CCC(c2ccc(Nc3ccnc4cc(Cl)ccc34)cc2)CC1 [ADC-027, N-(4-(1-butylpiperidin-4-yl)phenyl)-7-chloroquinolin-4-amine]
- IC50 [1, 6]: 9.03 nM
- IC50 [2, 7]: 20.4 nM
- CIint [3]: 129.7 mL/min/kg
- half-life [3]: 42.1 min
- CC50 at 24 h ([4]; HepG2 cells): > 200000 nM

Structure (SMILES): FC(F)(F)c1ccc(N2CCN(c3ccc(Nc4ccnc5cc(Cl)ccc45)cc3)CC2)cc1 [ADC-018, 7-chloro-N-(4-(4-(4-(trifluoromethyl)phenyl)piperazin-1-yl)phenyl)quinolin-4-amine]
- IC50 [1, 6]: 43.3 nM
- IC50 [2, 7]: 110 nM
- CC50 at 24 h ([4]; HepG2 cells): > 200000 nM

Structure (SMILES): CCN1CCC(c2ccc(Nc3ccnc4cc(Cl)ccc34)cc2)CC1 [ADC-020, 7-chloro-N-(4-(1-ethylpiperidin-4-yl)phenyl)quinolin-4-amine]
- IC50 [1, 6]: 4.56 nM
- IC50 [2, 7]: 13.4 nM
- ED50 (mg/kg/d) vs Py (Plasmodium yoelii): 1.8 mg/kg/day
- ED90 (mg/kg/d) vs Py (Plasmodium yoelii): 13.4 mg/kg/day
- CIint [3]: 496.7 mL/min/kg
- half-life [3]: 11 min
- CC50 at 24 h ([4]; HepG2 cells): 111000 nM

Structure (SMILES): CCC(C)N1CCC(c2ccc(Nc3ccnc4cc(Cl)ccc34)cc2)CC1 (stereo not shown) [ADC-029, N-(4-(1-(sec-butyl)piperidin-4-yl)phenyl)-7-chloroquinolin-4-amine]
- IC50 [1, 6]: 13.8 nM
- IC50 [2, 7]: 19 nM
- CIint [3]: 98.3 mL/min/kg
- half-life [3]: 55.5 min
- CC50 at 24 h ([4]; HepG2 cells): > 200000 nM

Structure (SMILES): CC(C)CN1CCN(c2ccc(Nc3ccnc4cc(Cl)ccc34)cc2)CC1 [ADC-030, 7-chloro-N-(4-(4-isobutylpiperazin-1-yl)phenyl)quinolin-4-amine]
- IC50 [1, 6]: 9.79 nM
- IC50 [2, 7]: 17.8 nM
- CIint [3]: 391.9 mL/min/kg
- half-life [3]: 13.9 min
- CC50 at 24 h ([4]; HepG2 cells): > 200000 nM

Structure (SMILES): CCCN1CCC(c2ccc(Nc3ccnc4cc(Cl)ccc34)cc2)CC1 [ADC-026, 7-chloro-N-(4-(1-propylpiperidin-4-yl)phenyl)quinolin-4-amine]
- IC50 [1, 6]: 9.25 nM
- IC50 [2, 7]: 19.3 nM
- CIint [3]: 78.0 mL/min/kg
- half-life [3]: 70 min
- CC50 at 24 h ([4]; HepG2 cells): > 200000 nM

Structure (SMILES): CC(C)N1CCC(c2ccc(Nc3ccnc4cc(Cl)ccc34)cc2)CC1 [ADC-021, 7-chloro-N-(4-(1-isopropylpiperidin-4-yl)phenyl)quinolin-4-amine]
- IC50 [1, 6]: 4.94 nM
- IC50 [2, 7]: 11.6 nM
- ED50 (mg/kg/d) vs Py (Plasmodium yoelii): 1.1 mg/kg/day
- ED90 (mg/kg/d) vs Py (Plasmodium yoelii): 4.1 mg/kg/day
- ED50 (Plasmodium yoelii; P. yoelii, CF1 female mice, 4-day test, oral in PEG-400): 1.1 mg/kg/day
- CIint [3]: 123.6 mL/min/kg
- half-life [3]: 44.1 min
- CC50 at 24 h ([4]; HepG2 cells): > 200000 nM

Structure (SMILES): Clc1ccc2c(Nc3ccc(N4CCN(Cc5ccccc5)CC4)cc3)ccnc2c1 [ADC-008, N-(4-(4-benzylpiperazin-1-yl)phenyl)-7-chloroquinolin-4-amine]
- IC50 [1, 6]: 16.1 nM
- IC50 [2, 7]: 15.9 nM
- cross resistance, Dd2 vs D6 [2]: Equipotency
- CIint [3]: 391.9 mL/min/kg
- half-life [3]: 13.9 min
- CC50 at 24 h ([4]; HepG2 cells): > 200000 nM

Structure (SMILES): CC(C)CN1CCC(c2ccc(Nc3ccnc4cc(Cl)ccc34)cc2)CC1 [ADC-028, 7-chloro-N-(4-(1-isobutylpiperidin-4-yl)phenyl)quinolin-4-amine]
- IC50 [1, 6]: 7.9 nM
- IC50 [2, 7]: 17.4 nM
- CC50 at 24 h [4]: > 200000 nM
- MRTIast ([5]; PO 5 mg/kg in PEG400, male CD1 mice): 1160 min
- AUC(0-inf) [5, 8]: 3160 ng·h/mL
- AUC(0-t) [5, 8]: 2360 ng·h/mL
- MRT inf [5, 8]: 35.6 h
- Cmax [5, 9]: 67.7 ng/mL
- Tmax [5, 9]: 60 min
- half-life ([5]; mouse, plasma, PO 5 mg/kg, male CD1 mice, Rsq_adjusted 0.829 (<0.9: might not be accurately estimated)): 1510 min

Structure (SMILES): CC(C)(C)OC(=O)N1CCN(c2ccc(Nc3ccnc4cc(Cl)ccc34)cc2)CC1 [ADC-012, tert-butyl 4-(4-((7-chloroquinolin-4-yl)amino)phenyl)piperazine-1-carboxylate]
- CC50 at 24 h ([4]; HepG2 cells): > 200000 nM

Structure (SMILES): CC(C)(C)N1CCN(c2ccc(Nc3ccnc4cc(Cl)ccc34)cc2)CC1 [ADC-017, N-(4-(4-(tert-butyl)piperazin-1-yl)phenyl)-7-chloroquinolin-4-amine]
- IC50 [1, 6]: 5.18 nM
- IC50 [2, 7]: 9.17 nM
- ED50 (mg/kg/d) vs Py (Plasmodium yoelii): 4.0 mg/kg/day
- ED90 (mg/kg/d) vs Py (Plasmodium yoelii): 7.6 mg/kg/day
- CIint [3]: 0.00 mL/min/kg
- T1/2 (min) [3]: ∞
- CC50 at 24 h ([4]; HepG2 cells): > 200000 nM

Structure (SMILES): Clc1ccc2c(Nc3ccc(N4CCN(C5CC5)CC4)cc3)ccnc2c1 [ADC-013, 7-chloro-N-(4-(4-cyclopropylpiperazin-1-yl)phenyl)quinolin-4-amine]
- IC50 [1, 6]: 39.2 nM
- IC50 [2, 7]: 84.4 nM
- CC50 at 24 h ([4]; HepG2 cells): > 200000 nM

Structure (SMILES): CCN1CCN(c2ccc(Nc3ccnc4cc(Br)ccc34)cc2)CC1 [ADC-025, 7-bromo-N-(4-(4-ethylpiperazin-1-yl)phenyl)quinolin-4-amine]
- IC50 [1, 6]: 10.3 nM
- IC50 [2, 7]: 19.2 nM
- CC50 at 24 h ([4]; HepG2 cells): 48000 nM

Structure (SMILES): CCN1CCN(c2ccc(Nc3ccnc4ccc(Cl)cc34)cc2)CC1 [ADC-014, 6-chloro-N-(4-(4-ethylpiperazin-1-yl)phenyl)quinolin-4-amine]
- IC50 [1, 6]: 69.8 nM
- IC50 [2, 7]: 66 nM
- cross resistance, Dd2 vs D6 [2]: Equipotency
- CC50 at 24 h ([4]; HepG2 cells): > 200000 nM

Structure (SMILES): CN1CCN(c2ccc(Nc3ccnc4cc(Cl)ccc34)cc2)CC1 [ADC-010, 7-chloro-N-(4-(4-methylpiperazin-1-yl)phenyl)quinolin-4-amine]
- IC50 [1, 6]: 13.3 nM
- IC50 [2, 7]: 14 nM
- cross resistance, Dd2 vs D6 [2]: Equipotency
- CIint [3]: 3784 mL/min/kg
- half-life [3]: 1.44 min
- CC50 at 24 h ([4]; HepG2 cells): 185000 nM

Structure (SMILES): CCN1CCN(c2ccc(Nc3ccnc4cc(Cl)ccc34)cc2)CC1 [ADC-009, 7-chloro-N-(4-(4-ethylpiperazin-1-yl)phenyl)quinolin-4-amine]
- IC50 [1]: 13.2 nM
- IC50 [1, 6]: ~13 nM
- IC50 [2]: 12.7 nM
- IC50 [2, 7]: ~13 nM
- ED50 (mg/kg/d) vs Py (Plasmodium yoelii): 1.5 mg/kg/day
- ED90 (mg/kg/d) vs Py (Plasmodium yoelii): 8.4 mg/kg/day
- CIint [3]: 2936 mL/min/kg
- half-life [3]: 1.86 min
- CC50 at 24 h ([4]; HepG2 cells): > 200000 nM

Structure (SMILES): Clc1ccc2c(Nc3ccc(N4CCNCC4)cc3)ccnc2c1 [ADC-011, 7-chloro-N-(4-(piperazin-1-yl)phenyl)quinolin-4-amine]
- IC50 [1, 6]: 21.8 nM
- IC50 [2, 7]: 65.8 nM
- CC50 at 24 h ([4]; HepG2 cells): 54000 nM

Structure (SMILES): Clc1ccc2c(Nc3ccc(C4CCNCC4)cc3)ccnc2c1 [ADC-015, 7-chloro-N-(4-(piperidin-4-yl)phenyl)quinolin-4-amine]
- IC50 [1, 6]: 10.2 nM
- IC50 [2, 7]: 75.2 nM
- CC50 at 24 h ([4]; HepG2 cells): 58000 nM

Structure (SMILES): CCN1CCN(c2ccc(Nc3ccnc4cc(C(F)(F)F)ccc34)cc2)CC1 [ADC-024, N-(4-(4-ethylpiperazin-1-yl)phenyl)-7-(trifluoromethyl)quinolin-4-amine]
- CC50 at 24 h ([4]; HepG2 cells): > 200000 nM
